Source: patent US8871919B2, “RNAi therapeutic for treatment of Hepatitis C infection” (Florida State University Research Foundation, priority 2007, dated 2014)
“Also recorded” adds a separate entry of the source.

How the values were obtained:
HCV = details: cited from earlier work
GS5 replicon cells [1] = assay: NS5A expression in GS5 replicon cells (Western blot); format: cell-based, Hepatitis C virus; details: for NS5A expression: GS5 cells
CyPA [2] = assay: CyPA expression in GS5 cells (Western blot); format: cell-based, human
Description: (§1) A human immunodeficiency virus (HIV)-based lentiviral vector is used to express all of the short hairpin RNAs (shRNAs). […] Target or sense sequences for the other shRNAs are as follows:
(§2) The above sequences may be converted to RNA sequences by changing each thymine (T) to uracil (U). Lentiviral vector production and transduction are performed as described previously (44). Stable cells expressing shRNAs are obtained by selection with 1 μg/ml of puromycin (MP Biomedicals, Solon, Ohio) for 3 weeks.

[3] = test system: Con1 (GT 1b) replicon cells; assay: NS5A expression in Con1 (GT 1b) replicon cells, transient transduction; format: cell-based, Hepatitis C virus; details: transient transduction (FIG. 4D)
Text: (§3) FIG. 4D is an image of Western blots showing expression of the proteins NS5A, CyPB, and CyPA in H77 (GT 1a) and Con1 (GT 1b) replicon cells transduced with the indicated shRNAs (sh-Luc or sh-A161);

HCVcc/JFH-1 = HCVcc/JFH-1 infection of Huh-7.5 cells; format: cell-based, Hepatitis C virus
Text: FIG. 5A is an image of an RNA gel showing HCV IRES RNA levels relative to cellular RNA helicase A (RHA) RNA in total RNA extracts from Huh7.5 cells transduced with several shRNAs (sh-Luc, sh-A159, or sh-B710) following infection with HCVcc/JFH-1 for nine days;
FIG. 5B is a fluorescence microscopy image showing anticore antibody and DAPI (4′,6′-diamidino-2-phenylindole) staining of paraformaldehyde fixed Huh7.5 cells transduced with either sh-Luc or sh-A159 following infection with HCVcc/JFH-1 for nine days;
FIG. 5C is an image of Western blots showing expression of the proteins NS3, GAPDH, and CyPA in total protein extracts from Huh7.5 cells transduced with the indicated shRNAs (sh-Luc or sh-A159) at 0, 9, or 12 days after infection with HCVcc/JFH-1 replicons; […]
Full-length JFH-1 cDNA is provided by Takaji Wakita. Production of infectious HCVcc and infection of Huh-7.5 cells are performed as described previously (See, e.g., Zhong, J. et al., “Robust hepatitis C virus infection in vitro,” Proc. Natl. Acad. Sci. USA, 102:9294-9299 (2005)). Western blotting and immunostaining of infected cells are carried out according to standard methods.

Rep1b RNA = details: day 4 vs 7 hours after electroporation (FIG. 2E)
Description: A parallel electroporation of Rep1b RNA into Huh-7.5/sh-Luc cells serves as a positive control, which is set at 100%;
One microgram of replicon RNA is mixed with 9 μg of a pcDNA3.1-based plasmid containing no insert, CyPA cDNA, CyPB cDNA, or CyPC cDNA and used in a standard electroporation (36). RNA is extracted 7 h and 4 days post-electroporation and subjected to quantitative RT-PCR analysis to detect HCV RNA as described previously (See, e.g., Robida, J. M et al., Characterization of hepatitis C virus subgenomic replicon resistance to cyclosporine in vitro, J. Virol., 81:5829-5840 (2007). All the CyP cDNAs are tagged with a Myc epitope at the C terminus, and the CyPA cDNA containing silent mutations in the sh-A159 recognition site is designated CyPA#.

CyPA [4] = assay: CyPA expression in RS2 cells (Western blot); format: cell-based, human; details: RS2 cells stably expressing shRNA (FIG. 3B)
Description: as §1, §2

[5] = test system: GT 1a (H77) subgenomic replicon; assay: Colony formation in stable Huh-7.5 cells electroporated with GT 1a (H77) replicon RNA; format: cell-based, Hepatitis C virus; details: stable Huh-7.5 cells (FIG. 4C)
Text: (§4) FIG. 4C is an image of plates containing stained Huh-7.5 cells transduced with several shRNAs (sh-Luc, sh-A159, sh-B710, or sh-C454) after four weeks following electroporation with one microgram of either H77 (GT 1a) or Con1 (GT 1b) replicons;
(§5) GS5 and RS2 cells contain GT 1b replicons with the GFP gene inserted into the NS5A region. (See, e.g., Moradpour, D. et al., “Insertion of green fluorescent protein into nonstructural protein 5A allows direct visualization of functional hepatitis C virus replication complexes,” J. Virol. 78:7400-7409 (2004); Nelson, H. B. et al., “Effect of cell growth on hepatitis C virus (HCV) replication and a mechanism of cell confluence-based inhibition of HCV RNA and protein expression,” J. Virol. 80:1181-1190 (2006)). Next the effect of CyPA knock-down on replicons without GFP is examined. Both GT 1a and 1b replicons are tested. To this end, stable Huh-7.5 cell lines are established that express the various shRNAs and then challenges them, by electroporation, with in vitro-transcribed GT 1a (H77) and 1b (Con1) subgenomic replicon RNAs. The shRNAs effectively silence the expression of their respective targets in the stable cells as expected (FIGS. 4A and 4B). No defect in morphology or growth rate is detected for any of the stable cell lines, confirming that these CyPs are dispensable for cell survival in vitro.

RS2 replicon cells [6] = assay: NS5A-GFP expression in RS2 cells by FACS; format: cell-based, Hepatitis C virus
Text: In contrast to the GS5 replicon, RS2 replicates efficiently in the presence of substantial CyPA knock-down (FIG. 1D).

GS5 replicon cells [7] = assay: Colony formation assay, puromycin and G418 double selection, GS5 cells; format: cell-based, Hepatitis C virus
[8] = test system: GT 1b (Con1) subgenomic replicon; assay: Colony formation in stable Huh-7.5 cells electroporated with GT 1b (Con1) replicon RNA; format: cell-based, Hepatitis C virus; details: stable Huh-7.5 cells (FIG. 4C)
Text: as §4, §5

[9] = test system: H77 (GT 1a) replicon cells; assay: NS5A expression in H77 (GT 1a) replicon cells, transient transduction; format: cell-based, Hepatitis C virus; details: transient transduction (FIG. 4D)
Text: as §3

[10] = test system: vesicular stomatitis virus; format: cell-based; details: sh-A159 Huh-7.5 cells (FIG. 5D)
RS2 replicon cells [11] = assay: Colony formation assay, puromycin and G418 double selection, RS2 cells; format: cell-based, Hepatitis C virus
RS2 replicon cells [12] = assay: NS5A expression in CsA-resistant RS2 replicon cells (Western blot); format: cell-based, Hepatitis C virus; details: lentiviral shRNA, 7 days
[13] = synthesized siRNA duplex, transient transfection (FIG. 2C)

In the case of alpha-interferon and ribavirin, the “sustained efficacy, share of patients” value (HCV) is given as 40%.
For “si-A159: synthesized siRNA duplex form of sh-A159 (sense SEQ ID NO: 2, antisense SEQ ID NO: 4) (sense AAGGGUUCCUGCUUUCACAGA; antisense UCUGUGAAAGCAGGAACCCUU; listed as RNA, chemistry not given here)”, the NS5A expression (GS5 replicon cells [1]; [13]) was “inhibited” and the CyPA expression (CyPA [2]; [13]) was “inhibited; also recorded: no more potent than si-A285”.
In the case of “sh-A159: shRNA against CyPA; sense sequence nucleotides 159 through 179 of human CyPA cDNA, hairpin UUCAAGAGA (SEQ ID NO: 3) (AAGGGUUCCUGCUUUCACAGAUUCAAGAGAUCUGUGAAAGCAGGAACCCUU)”, the NS5A expression [3] is reported as “inhibitory effect”, the “HCV infection of stable shRNA cells” value (HCVcc/JFH-1; Huh-7.5, HCVcc/JFH-1, RT-PCR, core staining, NS3 Western blot) is reported as “highly refractory to infection” and the “viral replication (NS3 expression) in an existing infection” value (HCVcc/JFH-1; Huh-7.5 infected with JFH-1 for 10 days, then transduced, NS3 measured 7 days after transduction) is reported as “suppresses viral replication”. The “HCV RNA replication with sh-A159-insensitive CyPA cDNA (Myc-A#)” value (Rep1b RNA) was “partially rescued”, the CyPA expression (CyPA [4]) was “substantial suppression” and the NS5A expression (GS5 replicon cells [1]; lentiviral shRNA, 7 days) was “inhibits NS5A expression; also recorded: most effective”. The “NS5A expression with sh-A159-insensitive CyPA cDNA (Myc-A#)” value (GS5 replicon cells [1]; replicon cells, sh-A159 together with Myc-A# (FIG. 2D)) was “partially rescued”, the “ability of replicon RNA to form colonies” value [5] was “completely inhibits” and the “suppression of NS5A-GFP expressing RS2 cells” value (RS2 replicon cells [6]; no selection, 0.5 μg/ml CsA, FACS (FIG. 3C)) was “no significant suppression”. For the same substance, the “sensitivity of RS2 replicon to CsA relative to RS2/sh-Luc” value (RS2 replicon cells [6]; stable RS2 cells, CsA 4 days, FACS (FIG. 3A)) was “six to eight times more sensitive”, the CyPA expression (CyPA [2]; lentiviral shRNA, 7 days (FIG. 2B)) was “knock down CyPA expression; also recorded: most effective” and the “number of double-resistant colonies” value (GS5 replicon cells [7]) was “significantly lower number”. The “ability of replicon RNA to form colonies” value [8] was “completely inhibits”, the NS5A expression [9] was “inhibitory effect” and the “susceptibility to infection by vesicular stomatitis virus” value [10] was “fully susceptible”. The “number of double-resistant colonies” value (RS2 replicon cells [11]) was “not observed”.
In the case of “sh-C454: shRNA directed at CyPC, nucleotides 454-474 of human CyPC cDNA (SEQ ID NO: 10) (AAGACTGAAGGTGTGCTGGTA) [reference compound]”, the NS5A expression (RS2 replicon cells [12]) is reported as “no effect” and the NS5A expression (GS5 replicon cells [1]; lentiviral shRNA, 7 days) is reported as “no effect”.
